# Columns and labels:
# Pocket X-mutant Arid5a = biological target: T1, Pocket X-mutant Arid5a (Mus musculus, UniProt Q3U108, F56C/L84A/V134A/Y137A); assay: Luciferase assay on Pocket X-mutant Arid5a (Phe56, Leu84, Val134, Tyr137 substitutions); type: cell-based; settings: 40 μM
# T1 construct: Flag; expressed in transfected cells; host or cells: HEK293T
# T1 sequence (Q3U108 1-590 F56C/L84A/V134A/Y137A): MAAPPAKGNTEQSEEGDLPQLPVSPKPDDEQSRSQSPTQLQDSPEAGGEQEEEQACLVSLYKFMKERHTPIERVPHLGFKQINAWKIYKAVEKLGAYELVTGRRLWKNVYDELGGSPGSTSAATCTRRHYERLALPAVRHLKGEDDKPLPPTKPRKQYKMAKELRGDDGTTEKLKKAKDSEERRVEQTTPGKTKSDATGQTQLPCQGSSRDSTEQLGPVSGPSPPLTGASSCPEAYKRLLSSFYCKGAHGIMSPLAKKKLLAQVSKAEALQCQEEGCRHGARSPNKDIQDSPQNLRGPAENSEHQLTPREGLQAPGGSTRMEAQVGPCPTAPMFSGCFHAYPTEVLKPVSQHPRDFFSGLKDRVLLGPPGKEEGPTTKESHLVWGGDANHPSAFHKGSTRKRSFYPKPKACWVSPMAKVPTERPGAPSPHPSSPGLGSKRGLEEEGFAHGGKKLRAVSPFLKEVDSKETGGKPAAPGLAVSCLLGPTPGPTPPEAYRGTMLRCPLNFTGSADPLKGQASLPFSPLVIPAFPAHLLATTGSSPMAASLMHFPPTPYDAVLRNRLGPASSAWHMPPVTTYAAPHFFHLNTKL
# Source text: Briefly, HEK293T cells were transfected with luciferase pGL-3 and empty pcDNA3.1 plasmids (Control), or pGL-3 plasmid encoding the 3′UTR of OX40, Il6 or Stat3, together with Arid5a-expressing pcDNA3.1 plasmid. Substitution mutations were introduced to the wild-type (WT) Arid5a at Phe56, Leu84, Val134 and Tyr137. Single point mutations were used to substitute Phe56 (TTC) with Cys (TGC) and Val134 (GTC) with Ala (GCC). Sequential point mutations were used to substitute Leu84 (CTG) with Ala (GCG) and Tyr137 (TAT) with Ala (GCT). Luciferase activity from cell lysates is shown relative to Control in FIGS. 2A-2C.
# EAE = assay: Experimental autoimmune encephalomyelitis (EAE) model of multiple sclerosis; type: in vivo, C57BL/6 female mice
# peritoneal macrophages = assay: Cytokine secretion by LPS-stimulated peritoneal macrophages; type: cell-based, mice; settings: 40 μM, LPS 0.5 μg/mL 24 h, compared to LPS alone
# Experimental: The peritoneal macrophages were stimulated in vitro with 0.5 μg/mL lipopolysaccharides (LPS) (Sigma-Aldrich) for 24 h. The CD4^+ CD62L^+ T cells were isolated and purified from spleen using the MACS isolation kit (Miltenyi). The T cells were cultured in the presence of anti-CD3/CD28 dynabeads (Invitrogen), recombinant mouse IL-6 (30 ng/mL; R&D Systems), recombinant transforming growth factor-β (TGF-β) (4 ng/mL; R&D Systems), anti-interferon-γ (IFN-γ) and anti-IL-4 (10 μg/mL; Biolegend) for 72 h to generate Th17 cells.
# The mRNAs and cytokines were quantified as follows. A first strand of cDNA was synthesized from total RNA by using the TaqMan reverse transcription kit. […] The relative expression of mRNAs was calculated by ΔΔCt method. For cytokines quantification in serum and cell culture supernatants, ELISA kits of IL-17a, IL-6, TNF-α (Invitrogen) were used following the manufacturer's instructions.
# The anti-inflammatory activity of the Arid5a inhibitor POE was tested in vitro by measuring secretion of pro-inflammatory cytokines by macrophages and differentiated Th17 cells. […] The percentage of CD4^+OX40^+ T cells in the polarized Th17 cells was determined using flow cytometry; the results are shown in FIG. 3D. […]
# [1] = 0.5 mg i.p., day 24, vs corn oil, FIG. 5B
compound,measurement,setting,value
"O=C(CSc1nnc(-c2ccncc2)o1)c1ccccc1 [POE, 1-Phenyl-2-(5-pyridin-4-yl-[1,3,4]oxadiazol-2-ylsulfanyl)-ethanone]",Inhibitory effect on stabilizing function of mutant Arid5a on OX40 3′UTR,"Pocket X-mutant Arid5a; mutations at Phe56, Leu84, Val134, Tyr137, FIG. 2A",abolish the inhibitory effects of POE
same,Inhibitory effect on stabilizing function of mutant Arid5a on Il6 3′UTR,"Pocket X-mutant Arid5a; mutations at Phe56, Leu84, Val134, Tyr137, FIG. 2B",abolish the inhibitory effects of POE
same,Inhibitory effect on stabilizing function of mutant Arid5a on Stat3 3′UTR,"Pocket X-mutant Arid5a; mutations at Phe56, Leu84, Val134, Tyr137, FIG. 2C",abolish the inhibitory effects of POE
same,EAE clinical scores,"EAE; 0.5 mg i.p. per day, days 0-3, vs corn oil, FIG. 5A",reduces EAE clinical scores
same,Serum level of IL-6,EAE; [1],reduces serum levels of IL-6 and TNF-α
same,Serum level of TNF-α,EAE; [1],reduces serum levels of IL-6 and TNF-α
same,Expression of OX40 mRNA in CD4+ T cells isolated from the CNS,"EAE; 10 days after disease induction, FIG. 5D",reduces the expression of OX40 mRNA
same,Frequency of CD4+OX40+ T cells in the CNS,"EAE; 10 days after disease induction, flow cytometry, FIG. 5E",reduces the frequency of CD4^+OX40^+ T cells
same,Level of IL-17 in culture supernatant of encephalitogenic CD4+ T cells on restimulation,"EAE; lymph node cells restimulated with MOG35-55 and IL-23 72 h, FIG. 5C",reduces the level of IL-17
same,Level of IL-6 in cell culture supernatant,peritoneal macrophages; FIG. 3A,reduces the level of IL-6
same,Level of TNF-α in cell culture supernatant,peritoneal macrophages; FIG. 3B,does not affect the level of TNF-α
